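GI50 is the concentration that inhibits growth by half. TGI: total growth inhibition.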
Assays:
Experiment in all cases: NCI-60 cell line screen, 384-well format
SK-MEL-5 melanoma = tested on: SK-MEL-5 melanoma
HOP-92 NSCLC = tested on: HOP-92 NSCLC
CCRF-CEM leukemia = tested on: CCRF-CEM leukemia
UACC-257 melanoma = tested on: UACC-257 melanoma
HT29 colon = tested on: HT29 colon
SF-268 CNS = tested on: SF-268 CNS
HOP-62 NSCLC = tested on: HOP-62 NSCLC
OVCAR-5 ovarian = tested on: OVCAR-5 ovarian
NCI/ADR-RES ovarian = tested on: NCI/ADR-RES ovarian
PC-3 prostate = tested on: PC-3 prostate
OVCAR-4 ovarian = tested on: OVCAR-4 ovarian
HS 578T breast = tested on: HS 578T breast
ACHN renal = tested on: ACHN renal
SK-OV-3 ovarian = tested on: SK-OV-3 ovarian
NCI-H460 NSCLC = tested on: NCI-H460 NSCLC
HCT-15 colon = tested on: HCT-15 colon
HL-60(TB) leukemia = tested on: HL-60(TB) leukemia
SR leukemia = tested on: SR leukemia
UO-31 renal = tested on: UO-31 renal
RXF 393 renal = tested on: RXF 393 renal
MCF7 breast = tested on: MCF7 breast
MDA-MB-231 breast = tested on: MDA-MB-231 breast
RPMI-8226 leukemia = tested on: RPMI-8226 leukemia
MOLT-4 leukemia = tested on: MOLT-4 leukemia
COLO 205 colon = tested on: COLO 205 colon
MALME-3M melanoma = tested on: MALME-3M melanoma
SK-MEL-28 melanoma = tested on: SK-MEL-28 melanoma
SF-539 CNS = tested on: SF-539 CNS
786-0 renal = tested on: 786-0 renal
EKVX NSCLC = tested on: EKVX NSCLC
SW-620 colon = tested on: SW-620 colon
MDA-MB-435 melanoma = tested on: MDA-MB-435 melanoma
NCI-H23 lung = tested on: NCI-H23 lung
BT-549 breast = tested on: BT-549 breast
A549 NSCLC = tested on: A549 NSCLC
HCT-116 colon = tested on: HCT-116 colon
TK-10 renal = tested on: TK-10 renal
SNB-19 CNS = tested on: SNB-19 CNS
KM12 colon = tested on: KM12 colon
T-47D breast = tested on: T-47D breast
DU-145 prostate = tested on: DU-145 prostate
OVCAR-3 ovarian = tested on: OVCAR-3 ovarian
SF-295 CNS = tested on: SF-295 CNS
IGROV1 ovarian = tested on: IGROV1 ovarian
HCC-2998 colon = tested on: HCC-2998 colon
A498 renal = tested on: A498 renal
M14 melanoma = tested on: M14 melanoma
NCI-H226 lung = tested on: NCI-H226 lung
SNB-75 CNS = tested on: SNB-75 CNS
CAKI-1 renal = tested on: CAKI-1 renal
NCI-H522 lung = tested on: NCI-H522 lung
U251 glioblastoma = tested on: U251 glioblastoma
MDA-MB-468 breast = tested on: MDA-MB-468 breast
SN12C renal = tested on: SN12C renal
OVCAR-8 ovarian = tested on: OVCAR-8 ovarian
LOX IMVI melanoma = tested on: LOX IMVI melanoma
NCI-H322M lung = tested on: NCI-H322M lung
K-562 leukemia = tested on: K-562 leukemia

For `CCN1C(=O)CNc2ncc(-c3ccc(-c4ncn[nH]4)nc3C)nc21`, the GI50 (SK-MEL-5 melanoma) was < 10 nM, the TGI (SK-MEL-5 melanoma) was 39.9 nM and the GI50 (HOP-92 NSCLC) was 19.6 nM. It also gave a TGI (HOP-92 NSCLC) of 145 nM, a GI50 (CCRF-CEM leukemia) of 23.4 nM and a TGI (CCRF-CEM leukemia) of 135 nM. It also gave a GI50 (UACC-257 melanoma) of 40.2 nM, a TGI (UACC-257 melanoma) of 270 nM and a GI50 (HT29 colon) of 42.7 nM. The TGI (HT29 colon) was 1740 nM, the GI50 (SF-268 CNS) was 18.6 nM and the TGI (SF-268 CNS) was 52.6 nM. The GI50 (HOP-62 NSCLC) was 16.8 nM, the TGI (HOP-62 NSCLC) was 49 nM and the GI50 (OVCAR-5 ovarian) was 28.5 nM. For the same molecule, the TGI (OVCAR-5 ovarian) was 2430 nM, the GI50 (NCI/ADR-RES ovarian) was 37.2 nM and the TGI (NCI/ADR-RES ovarian) was 220 nM. It also gave a GI50 (PC-3 prostate) of 10.5 nM, a TGI (PC-3 prostate) of 48.2 nM and a GI50 (OVCAR-4 ovarian) of 15.4 nM. It also gave a TGI (OVCAR-4 ovarian) of 178 nM, a GI50 (HS 578T breast) of 11.2 nM and a TGI (HS 578T breast) of 34.7 nM. It also gave a GI50 (ACHN renal) of 20 nM, a TGI (ACHN renal) of 94 nM and a GI50 (SK-OV-3 ovarian) of 21.7 nM. It also gave a TGI (SK-OV-3 ovarian) of 184 nM, a GI50 (NCI-H460 NSCLC) of 10.7 nM and a TGI (NCI-H460 NSCLC) of 146 nM. For the same molecule, the GI50 (HCT-15 colon) was 32 nM, the TGI (HCT-15 colon) was 1040 nM and the GI50 (HL-60(TB) leukemia) was 25.9 nM. The TGI (HL-60(TB) leukemia) was 59.8 nM, the GI50 (SR leukemia) was 11.1 nM and the TGI (SR leukemia) was 24.9 nM. For the same molecule, the GI50 (UO-31 renal) was 17.9 nM, the TGI (UO-31 renal) was 91 nM and the GI50 (RXF 393 renal) was 22.1 nM. For the same molecule, the TGI (RXF 393 renal) was 63.9 nM, the GI50 (MCF7 breast) was < 10 nM and the TGI (MCF7 breast) was 101 nM. For the same molecule, the GI50 (MDA-MB-231 breast) was 23.1 nM, the TGI (MDA-MB-231 breast) was 12700 nM and the GI50 (RPMI-8226 leukemia) was < 10 nM. It also gave a TGI (RPMI-8226 leukemia) of 12.3 nM, a GI50 (MOLT-4 leukemia) of 11.8 nM and a TGI (MOLT-4 leukemia) of 27.4 nM. The GI50 (COLO 205 colon) was 21.8 nM, the TGI (COLO 205 colon) was 145 nM and the GI50 (MALME-3M melanoma) was < 10 nM. For the same molecule, the TGI (MALME-3M melanoma) was 41 nM, the GI50 (SK-MEL-28 melanoma) was 23.5 nM and the TGI (SK-MEL-28 melanoma) was 174 nM. The GI50 (SF-539 CNS) was 36 nM, the TGI (SF-539 CNS) was 271 nM and the GI50 ([…]-0 renal) was 46.2 nM. It also gave a TGI (786-0 renal) of 375 nM, a GI50 (EKVX NSCLC) of 19.1 nM and a TGI (EKVX NSCLC) of 115 nM. It also gave a GI50 (SW-620 colon) of 32 nM, a TGI (SW-620 colon) of 1130 nM and a GI50 (MDA-MB-435 melanoma) of 36.3 nM. The TGI (MDA-MB-435 melanoma) was 284 nM, the GI50 (NCI-H23 lung) was 18.4 nM and the TGI (NCI-H23 lung) was 52.4 nM. It also gave a GI50 (BT-549 breast) of 15.8 nM, a TGI (BT-549 breast) of 53.1 nM and a GI50 (A549 NSCLC) of 27.5 nM. It also gave a TGI (A549 NSCLC) of 181 nM, a GI50 (HCT-116 colon) of 45 nM and a TGI (HCT-116 colon) of 193 nM. For the same molecule, the GI50 (TK-10 renal) was 23.4 nM, the TGI (TK-10 renal) was 143 nM and the GI50 (SNB-19 CNS) was 64.6 nM. The TGI (SNB-19 CNS) was 706 nM, the GI50 (KM12 colon) was 28 nM and the TGI (KM12 colon) was 1420 nM. For the same molecule, the GI50 (T-47D breast) was < 10 nM, the TGI (T-47D breast) was 34.3 nM and the GI50 (DU-145 prostate) was 34.1 nM. It also gave a TGI (DU-145 prostate) of 240 nM, a GI50 (OVCAR-3 ovarian) of 29.8 nM and a TGI (OVCAR-3 ovarian) of 227 nM. For the same molecule, the GI50 (SF-295 CNS) was < 10 nM, the TGI (SF-295 CNS) was 32.8 nM and the GI50 (IGROV1 ovarian) was 12.4 nM. It also gave a TGI (IGROV1 ovarian) of 46.7 nM, a GI50 (HCC-2998 colon) of 52.6 nM and a TGI (HCC-2998 colon) of 285 nM. For the same molecule, the GI50 (A498 renal) was 14.1 nM, the TGI (A498 renal) was 82 nM and the GI50 (M14 melanoma) was 18.7 nM. The TGI (M14 melanoma) was 420 nM, the GI50 (NCI-H226 lung) was 18.3 nM and the TGI (NCI-H226 lung) was 69.6 nM. For the same molecule, the GI50 (SNB-75 CNS) was < 10 nM, the TGI (SNB-75 CNS) was 37.9 nM and the GI50 (CAKI-1 renal) was 18.4 nM. For the same molecule, the TGI (CAKI-1 renal) was 53.3 nM, the GI50 (NCI-H522 lung) was 14 nM and the TGI (NCI-H522 lung) was 134 nM. The GI50 (U251 glioblastoma) was 38.5 nM, the TGI (U251 glioblastoma) was 217 nM and the GI50 (MDA-MB-468 breast) was 16 nM. For the same molecule, the TGI (MDA-MB-468 breast) was 75.1 nM, the GI50 (SN12C renal) was 28.2 nM and the TGI (SN12C renal) was 333 nM. For the same molecule, the GI50 (OVCAR-8 ovarian) was 32.7 nM, the TGI (OVCAR-8 ovarian) was 1070 nM and the GI50 (LOX IMVI melanoma) was 41.2 nM. For the same molecule, the TGI (LOX IMVI melanoma) was 150 nM, the GI50 (NCI-H322M lung) was 27.7 nM and the TGI (NCI-H322M lung) was 507 nM. For the same molecule, the GI50 (K-562 leukemia) was 46.5 nM and the TGI (K-562 leukemia) was 1700 nM.
